Source: ChEMBL document CHEMBL4007384, “Synthesis and optimization of furano[3,2-d]pyrimidines as selective spleen tyrosine kinase (Syk) inhibitors” (Bioorg Med Chem Lett, 2016)

How the values were obtained:
[1] = molecular target: Macrophage colony-stimulating factor 1 receptor (Homo sapiens, UniProt P07333); experiment: Inhibition of CSF1R (unknown origin) after 60 mins by TR-FRET assay
[2] = molecular target: Glycogen synthase kinase-3 alpha (Homo sapiens, UniProt P49840); experiment: Inhibition of GSK3A (unknown origin) after 60 mins by TR-FRET assay
[3] = molecular target: Protein kinase C theta type (Homo sapiens, UniProt Q04759); experiment: Inhibition of PKCtheta (unknown origin) after 60 mins by TR-FRET assay
Chain of Protein kinase C theta type (Q04759 whole entry): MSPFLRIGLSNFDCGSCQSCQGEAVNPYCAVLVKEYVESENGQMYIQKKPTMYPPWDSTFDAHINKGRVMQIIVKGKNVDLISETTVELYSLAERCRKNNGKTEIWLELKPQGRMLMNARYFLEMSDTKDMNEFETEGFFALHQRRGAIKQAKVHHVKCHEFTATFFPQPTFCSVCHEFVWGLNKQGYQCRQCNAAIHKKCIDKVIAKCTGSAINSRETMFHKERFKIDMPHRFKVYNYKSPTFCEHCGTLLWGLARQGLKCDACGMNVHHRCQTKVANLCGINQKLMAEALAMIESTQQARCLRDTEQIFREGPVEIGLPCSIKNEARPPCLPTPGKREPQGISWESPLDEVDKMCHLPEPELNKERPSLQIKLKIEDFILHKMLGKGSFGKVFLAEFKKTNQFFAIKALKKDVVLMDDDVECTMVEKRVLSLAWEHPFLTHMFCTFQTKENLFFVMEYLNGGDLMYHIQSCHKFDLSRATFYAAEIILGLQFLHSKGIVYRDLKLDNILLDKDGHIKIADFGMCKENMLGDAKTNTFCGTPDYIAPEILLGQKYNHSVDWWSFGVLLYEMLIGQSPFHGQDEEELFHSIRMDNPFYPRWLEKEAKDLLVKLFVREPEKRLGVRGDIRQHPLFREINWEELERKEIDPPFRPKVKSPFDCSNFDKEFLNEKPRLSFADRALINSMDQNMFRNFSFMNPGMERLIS

[4] = molecular target: Cyclin-dependent kinase 8 (Homo sapiens, UniProt P49336); experiment: Inhibition of CDK8 (unknown origin) after 60 mins by TR-FRET assay
[5] = molecular target: Tyrosine-protein kinase JAK2 (Homo sapiens, UniProt O60674); experiment: Inhibition of JAK2 (unknown origin) after 60 mins by TR-FRET assay
[6] = molecular target: T1, Inhibitor of nuclear factor kappa-B kinase subunit epsilon (Homo sapiens, UniProt Q14164); experiment: Inhibition of IKKE (unknown origin) after 60 mins by TR-FRET assay
T1 sequence (Q14164 whole entry): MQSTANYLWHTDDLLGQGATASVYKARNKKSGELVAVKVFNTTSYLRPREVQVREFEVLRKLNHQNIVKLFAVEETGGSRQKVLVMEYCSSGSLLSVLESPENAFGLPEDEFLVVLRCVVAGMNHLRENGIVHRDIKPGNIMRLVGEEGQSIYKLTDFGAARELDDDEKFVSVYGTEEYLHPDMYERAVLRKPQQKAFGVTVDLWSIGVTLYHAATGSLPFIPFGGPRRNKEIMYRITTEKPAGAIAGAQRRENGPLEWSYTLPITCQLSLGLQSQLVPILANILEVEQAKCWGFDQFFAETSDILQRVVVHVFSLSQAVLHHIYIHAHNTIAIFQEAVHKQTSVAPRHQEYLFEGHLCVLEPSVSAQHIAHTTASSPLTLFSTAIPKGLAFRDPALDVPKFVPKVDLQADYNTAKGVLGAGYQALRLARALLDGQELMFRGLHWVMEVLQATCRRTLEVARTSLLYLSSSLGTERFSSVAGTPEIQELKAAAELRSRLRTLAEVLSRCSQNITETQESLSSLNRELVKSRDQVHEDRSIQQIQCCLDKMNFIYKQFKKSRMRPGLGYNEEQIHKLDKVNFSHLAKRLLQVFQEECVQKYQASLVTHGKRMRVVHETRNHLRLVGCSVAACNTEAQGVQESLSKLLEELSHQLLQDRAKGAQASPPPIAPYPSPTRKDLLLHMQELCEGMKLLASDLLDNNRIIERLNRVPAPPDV

Insulin receptor = Insulin receptor (Homo sapiens, UniProt P06213); experiment: Inhibition of INSR (unknown origin) after 60 mins by TR-FRET assay
Chain of Insulin receptor (P06213 28-758 limits assumed): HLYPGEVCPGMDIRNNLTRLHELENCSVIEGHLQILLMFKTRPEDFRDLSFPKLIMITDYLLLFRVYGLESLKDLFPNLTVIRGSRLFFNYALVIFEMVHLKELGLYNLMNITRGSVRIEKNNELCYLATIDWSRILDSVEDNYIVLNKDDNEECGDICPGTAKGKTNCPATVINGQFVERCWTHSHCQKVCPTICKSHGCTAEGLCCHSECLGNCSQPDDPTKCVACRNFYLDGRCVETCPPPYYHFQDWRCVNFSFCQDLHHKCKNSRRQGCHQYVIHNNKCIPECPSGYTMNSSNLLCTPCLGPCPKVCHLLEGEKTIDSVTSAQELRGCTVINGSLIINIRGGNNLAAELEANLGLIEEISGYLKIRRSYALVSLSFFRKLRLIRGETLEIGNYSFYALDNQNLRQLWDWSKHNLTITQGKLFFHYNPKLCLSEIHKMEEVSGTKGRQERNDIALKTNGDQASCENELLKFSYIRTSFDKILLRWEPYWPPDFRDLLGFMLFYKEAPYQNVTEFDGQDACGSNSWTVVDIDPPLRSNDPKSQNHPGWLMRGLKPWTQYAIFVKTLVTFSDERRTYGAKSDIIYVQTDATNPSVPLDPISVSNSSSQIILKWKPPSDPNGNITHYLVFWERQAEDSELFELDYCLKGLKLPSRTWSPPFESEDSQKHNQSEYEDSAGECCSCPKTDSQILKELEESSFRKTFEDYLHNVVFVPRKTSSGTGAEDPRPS
Chain of Insulin receptor (P06213 763-1382 limits assumed): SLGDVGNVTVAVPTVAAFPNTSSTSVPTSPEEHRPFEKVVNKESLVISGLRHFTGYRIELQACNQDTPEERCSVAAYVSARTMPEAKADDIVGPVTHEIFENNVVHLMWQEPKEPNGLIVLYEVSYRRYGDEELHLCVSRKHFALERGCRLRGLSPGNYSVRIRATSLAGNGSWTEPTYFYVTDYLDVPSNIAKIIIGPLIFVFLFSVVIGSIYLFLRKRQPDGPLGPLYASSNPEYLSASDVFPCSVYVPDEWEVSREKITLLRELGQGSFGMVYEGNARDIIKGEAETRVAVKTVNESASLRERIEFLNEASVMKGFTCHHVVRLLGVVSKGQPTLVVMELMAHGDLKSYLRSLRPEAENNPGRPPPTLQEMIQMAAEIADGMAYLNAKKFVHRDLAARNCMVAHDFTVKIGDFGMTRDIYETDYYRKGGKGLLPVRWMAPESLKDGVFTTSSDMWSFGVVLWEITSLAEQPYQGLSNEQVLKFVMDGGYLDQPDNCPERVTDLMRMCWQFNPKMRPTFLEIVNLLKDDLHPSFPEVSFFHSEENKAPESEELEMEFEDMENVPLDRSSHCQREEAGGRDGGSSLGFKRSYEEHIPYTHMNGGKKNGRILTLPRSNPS

[7] = molecular target: Calcium/calmodulin-dependent protein kinase type 1D (Homo sapiens, UniProt Q8IU85); experiment: Inhibition of human CAMK1D (unknown origin) after 60 mins by TR-FRET assay
Chain of Calcium/calmodulin-dependent protein kinase type 1D (Q8IU85 whole entry): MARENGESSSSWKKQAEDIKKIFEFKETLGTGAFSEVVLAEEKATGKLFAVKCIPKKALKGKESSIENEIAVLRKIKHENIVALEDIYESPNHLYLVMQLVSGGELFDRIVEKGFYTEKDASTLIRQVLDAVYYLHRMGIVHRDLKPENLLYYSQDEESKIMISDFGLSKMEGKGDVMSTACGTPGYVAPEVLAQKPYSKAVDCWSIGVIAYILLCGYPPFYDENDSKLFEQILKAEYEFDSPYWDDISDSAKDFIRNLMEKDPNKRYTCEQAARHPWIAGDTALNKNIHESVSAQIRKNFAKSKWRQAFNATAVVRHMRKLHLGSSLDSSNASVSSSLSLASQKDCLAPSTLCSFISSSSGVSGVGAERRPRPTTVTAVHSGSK

[8] = molecular target: Rho-associated protein kinase 2 (Homo sapiens, UniProt O75116); experiment: Inhibition of ROCK2 (unknown origin) after 60 mins by TR-FRET assay
Chain of Rho-associated protein kinase 2 (O75116 whole entry): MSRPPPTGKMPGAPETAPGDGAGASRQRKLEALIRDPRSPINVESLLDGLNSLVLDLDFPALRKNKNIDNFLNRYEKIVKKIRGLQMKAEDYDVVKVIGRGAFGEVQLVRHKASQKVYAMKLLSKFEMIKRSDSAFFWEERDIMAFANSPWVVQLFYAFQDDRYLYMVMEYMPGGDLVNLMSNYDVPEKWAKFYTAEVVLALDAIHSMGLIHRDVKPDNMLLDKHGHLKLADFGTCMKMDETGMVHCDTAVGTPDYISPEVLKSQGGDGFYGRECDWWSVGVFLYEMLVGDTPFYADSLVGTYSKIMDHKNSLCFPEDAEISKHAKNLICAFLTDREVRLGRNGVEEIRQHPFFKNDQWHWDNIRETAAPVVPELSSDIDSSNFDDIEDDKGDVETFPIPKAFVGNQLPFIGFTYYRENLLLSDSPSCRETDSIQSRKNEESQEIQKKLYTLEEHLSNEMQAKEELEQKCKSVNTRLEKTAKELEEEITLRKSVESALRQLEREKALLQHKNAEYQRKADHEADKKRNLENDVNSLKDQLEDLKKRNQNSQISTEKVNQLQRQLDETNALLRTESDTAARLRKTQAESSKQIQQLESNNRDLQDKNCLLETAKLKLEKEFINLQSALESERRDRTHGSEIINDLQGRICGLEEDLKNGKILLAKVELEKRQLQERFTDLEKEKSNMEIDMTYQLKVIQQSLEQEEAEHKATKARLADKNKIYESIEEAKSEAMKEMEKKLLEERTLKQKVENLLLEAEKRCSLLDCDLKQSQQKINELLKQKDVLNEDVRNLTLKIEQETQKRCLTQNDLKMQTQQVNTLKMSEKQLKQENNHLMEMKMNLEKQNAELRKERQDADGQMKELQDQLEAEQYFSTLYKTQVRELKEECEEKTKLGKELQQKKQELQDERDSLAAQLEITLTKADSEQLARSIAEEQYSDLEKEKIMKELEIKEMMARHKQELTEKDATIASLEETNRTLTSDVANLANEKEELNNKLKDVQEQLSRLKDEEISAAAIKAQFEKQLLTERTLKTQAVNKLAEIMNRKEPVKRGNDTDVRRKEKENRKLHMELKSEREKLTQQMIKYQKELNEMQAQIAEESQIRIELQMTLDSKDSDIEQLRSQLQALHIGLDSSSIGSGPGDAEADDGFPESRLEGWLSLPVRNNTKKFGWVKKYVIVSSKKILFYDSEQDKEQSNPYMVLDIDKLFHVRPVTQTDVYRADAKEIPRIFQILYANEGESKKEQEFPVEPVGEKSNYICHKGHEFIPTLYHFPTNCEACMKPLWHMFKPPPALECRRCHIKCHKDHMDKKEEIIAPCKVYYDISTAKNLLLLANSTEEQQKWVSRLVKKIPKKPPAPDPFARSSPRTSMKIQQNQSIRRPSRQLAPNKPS

[9] = molecular target: T2, Serine/threonine-protein kinase Nek2 (Homo sapiens, UniProt P51955); experiment: Inhibition of NEK2 (unknown origin) after 60 mins by TR-FRET assay
T2 sequence (P51955 whole entry): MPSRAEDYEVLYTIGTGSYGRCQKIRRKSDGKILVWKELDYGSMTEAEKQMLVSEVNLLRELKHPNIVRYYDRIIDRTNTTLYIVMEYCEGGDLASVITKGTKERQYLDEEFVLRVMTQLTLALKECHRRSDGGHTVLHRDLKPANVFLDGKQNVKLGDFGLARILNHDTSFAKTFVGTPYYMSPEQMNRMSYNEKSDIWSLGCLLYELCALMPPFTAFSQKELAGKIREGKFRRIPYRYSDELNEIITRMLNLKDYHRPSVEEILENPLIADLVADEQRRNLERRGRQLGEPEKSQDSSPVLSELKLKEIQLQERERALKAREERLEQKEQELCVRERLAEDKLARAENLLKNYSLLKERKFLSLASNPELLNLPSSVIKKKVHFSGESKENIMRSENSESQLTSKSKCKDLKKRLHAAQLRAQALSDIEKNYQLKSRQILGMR

[10] = molecular target: Calcium/calmodulin-dependent protein kinase type II subunit alpha (Homo sapiens, UniProt Q9UQM7); experiment: Inhibition of human CAMK2A (unknown origin) after 60 mins by TR-FRET assay
Chain of Calcium/calmodulin-dependent protein kinase type II subunit alpha (Q9UQM7 whole entry): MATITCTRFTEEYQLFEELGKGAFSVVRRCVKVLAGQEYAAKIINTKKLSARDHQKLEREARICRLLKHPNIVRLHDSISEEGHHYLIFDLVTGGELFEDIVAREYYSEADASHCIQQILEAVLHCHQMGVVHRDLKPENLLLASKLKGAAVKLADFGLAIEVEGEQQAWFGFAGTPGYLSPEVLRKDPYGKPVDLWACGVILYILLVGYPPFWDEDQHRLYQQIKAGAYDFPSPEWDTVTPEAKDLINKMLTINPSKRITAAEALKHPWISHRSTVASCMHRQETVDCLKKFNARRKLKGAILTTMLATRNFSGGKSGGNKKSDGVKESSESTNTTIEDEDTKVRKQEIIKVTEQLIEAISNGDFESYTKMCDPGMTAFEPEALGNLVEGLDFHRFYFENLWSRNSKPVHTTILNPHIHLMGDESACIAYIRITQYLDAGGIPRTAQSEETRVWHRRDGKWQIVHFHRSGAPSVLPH

[11] = molecular target: Dual specificity protein kinase CLK2 (Homo sapiens, UniProt P49760); experiment: Inhibition of CLK2 (unknown origin) after 60 mins by TR-FRET assay
[12] = molecular target: T3, Serine/threonine-protein kinase TBK1 (Homo sapiens, UniProt Q9UHD2); experiment: Inhibition of TBK1 (unknown origin) after 60 mins by TR-FRET assay
T3 sequence (Q9UHD2 whole entry): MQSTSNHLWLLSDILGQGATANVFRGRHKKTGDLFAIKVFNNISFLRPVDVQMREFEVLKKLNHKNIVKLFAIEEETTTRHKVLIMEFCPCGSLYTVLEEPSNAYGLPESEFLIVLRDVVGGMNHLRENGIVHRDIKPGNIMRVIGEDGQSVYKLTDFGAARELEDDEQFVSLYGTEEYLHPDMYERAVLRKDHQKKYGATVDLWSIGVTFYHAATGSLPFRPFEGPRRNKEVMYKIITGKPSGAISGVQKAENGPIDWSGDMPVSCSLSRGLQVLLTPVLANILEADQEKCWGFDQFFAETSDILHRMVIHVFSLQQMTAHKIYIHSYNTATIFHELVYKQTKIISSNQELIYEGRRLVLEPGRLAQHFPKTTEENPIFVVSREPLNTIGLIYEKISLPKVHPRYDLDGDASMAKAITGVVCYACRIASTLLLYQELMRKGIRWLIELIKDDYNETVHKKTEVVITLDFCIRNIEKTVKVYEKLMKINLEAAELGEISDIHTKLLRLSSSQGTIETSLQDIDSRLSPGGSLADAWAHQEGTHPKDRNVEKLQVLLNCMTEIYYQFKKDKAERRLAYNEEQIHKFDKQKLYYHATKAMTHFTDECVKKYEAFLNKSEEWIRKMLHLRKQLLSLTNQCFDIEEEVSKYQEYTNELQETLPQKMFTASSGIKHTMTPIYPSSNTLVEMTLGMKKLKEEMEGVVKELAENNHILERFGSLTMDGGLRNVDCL

[13] = molecular target: AMP-activated protein kinase, AMPK; experiment: Inhibition of AMPK (unknown origin) after 60 mins by TR-FRET assay; set-up: species or system Homo sapiens
[14] = molecular target: T4, Tyrosine-protein kinase SYK (Homo sapiens, UniProt P43405)
Description: Inhibition of Syk (unknown origin) after 60 mins by TR-FRET assay

[15] = molecular target: T4, Tyrosine-protein kinase SYK; remark: listed apart in the source
Description: Inhibition of Syk in human Ramos B cells assessed as decrease in intracellular calcium flux measured for 3.5 mins by calcium-5 dye based FLIPR assay

[16] = molecular target: Ribosomal protein S6 kinase alpha-3 (Homo sapiens, UniProt P51812); experiment: Inhibition of RSK2 (unknown origin) after 60 mins by TR-FRET assay
Chain of Ribosomal protein S6 kinase alpha-3 (P51812 whole entry): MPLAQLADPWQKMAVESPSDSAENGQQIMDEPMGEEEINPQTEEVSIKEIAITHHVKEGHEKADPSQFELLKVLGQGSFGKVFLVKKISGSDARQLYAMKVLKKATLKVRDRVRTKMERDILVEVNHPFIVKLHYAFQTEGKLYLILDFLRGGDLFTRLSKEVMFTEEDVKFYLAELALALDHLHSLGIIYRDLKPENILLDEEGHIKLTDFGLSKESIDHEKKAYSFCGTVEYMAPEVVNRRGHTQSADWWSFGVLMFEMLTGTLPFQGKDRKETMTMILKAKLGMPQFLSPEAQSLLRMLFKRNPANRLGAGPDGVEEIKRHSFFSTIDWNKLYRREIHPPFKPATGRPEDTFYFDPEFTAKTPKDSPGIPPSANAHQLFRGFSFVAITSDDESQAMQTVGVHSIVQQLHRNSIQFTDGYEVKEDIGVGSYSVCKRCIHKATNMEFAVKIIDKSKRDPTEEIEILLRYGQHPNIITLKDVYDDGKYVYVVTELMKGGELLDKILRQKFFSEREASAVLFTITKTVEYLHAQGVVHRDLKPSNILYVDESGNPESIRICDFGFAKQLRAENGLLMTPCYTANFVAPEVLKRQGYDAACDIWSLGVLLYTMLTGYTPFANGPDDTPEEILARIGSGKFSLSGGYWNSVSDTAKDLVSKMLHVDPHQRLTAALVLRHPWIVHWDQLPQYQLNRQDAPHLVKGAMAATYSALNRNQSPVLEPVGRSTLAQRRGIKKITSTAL

[17] = molecular target: Proto-oncogene tyrosine-protein kinase receptor Ret (Homo sapiens, UniProt P07949); experiment: Inhibition of RET (unknown origin) after 60 mins by TR-FRET assay

SMILES	IC50 [1] [µM]	IC50 [2] [µM]	IC50 [3] [µM]	IC50 [4] [µM]	IC50 [5] [µM]	IC50 [6] [µM]	IC50 (Insulin receptor) [µM]	IC50 [7] [µM]	IC50 [8] [µM]	IC50 [9] [µM]	IC50 [10] [µM]	IC50 [11] [µM]	IC50 [12] [µM]	IC50 [13] [µM]	IC50 [14] [µM]	EC50 [15] [µM]	IC50 [16] [µM]	IC50 [17] [µM]
Cc1n[nH]c2cc(Nc3nc(NC4CC4)c4occc4n3)ccc12	> 10	> 10	> 10	> 10	4.17	> 10	> 10	> 10	> 10	> 10	> 10	> 10	> 10	> 10				
FC(F)(F)CNc1nc(Nc2ccc3cn[nH]c3c2)nc2ccoc12	> 10	9.36		2.11		> 10		> 10		> 10	> 10	6.44	> 10	> 10	0.097	0.235	9.81	3.5
CC1(C)OCC(=O)Nc2cc(Nc3nc(NCC(F)(F)F)c4occc4n3)ccc21	> 10	> 10	> 10	> 10	0.236	3.43	2.13	> 10	6.32	> 10	> 10	> 10	7.61	> 10	0.009	0.017	> 10	0.379
FC(F)(F)CNc1nc(Nc2ccc(N3CCOCC3)c(Cl)c2)nc2ccoc12	> 10	> 10	> 10	> 10	2.32	> 10	3.48	> 10	> 10	> 10	> 10	> 10	> 10	> 10	0.069	0.117	> 10	1.51
